Reference: DBAASP
≈ marks a conversion by molar mass, not a printed value. Where “and” joins values, the source holds several entries; their conditions need not be identical. Equal entries are not always repeated. Each block holds one compound with its values, some of them ahead of it.

Columns and labels:
Experiment in all cases: ≥ marks a high value that may be exact or a test limit, other limits are often not marked, values filed in µg/mL are converted to µM
[1] = test system: Pectobacterium carotovorum
[2] = test system: Bacillus subtilis ATCC 6051
[3] = test system: Escherichia coli NEB5alpha
Escherichia coli DL7 = test system: Escherichia coli DL7
[4] = test system: Klebsiella aerogenes ATCC 13048
[5] = test system: Staphylococcus epidermidis ATCC 12228
[6] = test system: Cronobacter sakazakii DPC 6440
[7] = test system: Listeria monocytogenes LO28
Aerococcus viridans = test system: Aerococcus viridans
Bacillus megaterium = test system: Bacillus megaterium
Micrococcus luteus = test system: Micrococcus luteus

SMILES: CC[C@H](C)[C@H](NC(=O)[C@H](C)NC(=O)[C@@H](N)CS)C(=O)N[C@@H](CCC(=O)O)C(=O)N[C@@H](Cc1cnc[nH]1)C(=O)N[C@@H](CCSC)C(=O)N[C@@H](CCCN=C(N)N)C(=O)N[C@H](C(=O)N1CCC[C@H]1C(=O)N[C@@H](CC(C)C)C(=O)N[C@@H](CCCCN)C(=O)N1CCC[C@H]1C(=O)N[C@@H](Cc1ccccc1)C(=O)N[C@@H](CO)C(=O)N[C@@H](Cc1ccccc1)C(=O)NCC(=O)N1CCC[C@H]1C(=O)N1CCC[C@H]1C(=O)N[C@@H](Cc1ccc(O)cc1)C(=O)N[C@@H](CC(N)=O)C(=O)N[C@@H](CC(C)C)C(=O)O)[C@@H](C)O [CAIEHMRTPLKPFSFGPPYNL]
MIC [1]: 3.46 µM (≈ 8.38 µg/mL)

SMILES: CC[C@H](C)[C@H](N)C(=O)N[C@@H](CC(N)=O)C(=O)NCC(=O)N[C@@H](CCSC)C(=O)N1CCC[C@H]1C(=O)N[C@@H](CCC(=O)O)C(=O)N[C@@H](CCC(=O)O)C(=O)N[C@H](C(=O)N[C@H](C(=O)N[C@@H](C)C(=O)N[C@@H](C)C(=O)O)C(C)C)C(C)C [INGMPEEVVAA]
MIC [2]: ≥ 1000 µM | MIC [3]: ≥ 1000 µM

SMILES: CSCC[C@H](NC(=O)[C@H](CCCN=C(N)N)NC(=O)[C@H](CCC(N)=O)NC(=O)[C@@H]1CSSC[C@H](NC(=O)[C@@H](N)Cc2ccc(O)cc2)C(=O)N[C@@H](CC(N)=O)C(=O)N[C@@H](CCCN=C(N)N)C(=O)N[C@@H](CCCN=C(N)N)C(=O)N[C@@H]([C@@H](C)O)C(=O)NCC(=O)N[C@@H](CCCCN)C(=O)N1)C(=O)O [YCNRRTGKCQRM]
MIC (Aerococcus viridans): 28.3 µM (≈ 42.8 µg/mL) | MIC (Bacillus megaterium): 28.3 µM (≈ 42.8 µg/mL) | MIC (Micrococcus luteus): 28.3 µM (≈ 42.8 µg/mL)

Continued, values first:

MIC [2]: ≥ 1270 µM | MIC [3]: ≥ 633 µM
SMILES: CC(C)C[C@H](NC(=O)[C@H](CCCN=C(N)N)NC(=O)[C@H](CC(C)C)NC(=O)[C@H](CC(C)C)NC(=O)[C@H](CCC(N)=O)NC(=O)[C@H](CCC(=O)O)NC(=O)[C@@H](N)CC(C)C)C(=O)N[C@@H](CCCCN)C(=O)N[C@@H](CCCCN)C(=O)N[C@@H](Cc1ccc(O)cc1)C(=O)O [LEQLLRLKKY]

MIC (Escherichia coli DL7): 0.25 µM and 0.125 µM | MIC [4]: ≥ 32 µM | MIC [5]: 0.25 µM (≈ 0.468 µg/mL)
SMILES: CC[C@H](C)[C@H](NC(=O)[C@@H](N)C(C)C)C(=O)N[C@@H](Cc1cnc[nH]1)C(=O)N[C@@H](CCCCN)C(=O)N[C@@H](CC(C)C)C(=O)N[C@@H](C)C(=O)N[C@@H](CCCCN)C(=O)N[C@@H](CC(C)C)C(=O)N[C@@H](C)C(=O)N[C@@H](CCCCN)C(=O)N[C@@H](CCCCN)C(=O)N[C@@H](CC(C)C)C(=O)N[C@@H](C)C(=O)N[C@@H](CCCCN)C(=O)N[C@@H](CC(C)C)C(=O)N[C@@H](C)C(=O)N[C@@H](CCCCN)C(N)=O [VIHKLAKLAKKLAKLAK]

MIC [6]: 19.5 µM (≈ 36.2 µg/mL) | MIC [7]: 2.44 µM (≈ 4.52 µg/mL)
SMILES: CC[C@H](C)[C@H](NC(=O)[C@@H](NC(=O)[C@H](CCCCN)NC(=O)[C@@H](NC(=O)[C@H](CCCCN)NC(=O)[C@H](C)NC(=O)[C@H](CCC(N)=O)NC(=O)[C@@H](NC(=O)[C@@H](N)Cc1c[nH]c2ccccc12)[C@@H](C)CC)[C@@H](C)O)C(C)C)C(=O)N[C@@H](C)C(=O)N[C@@H](Cc1ccc(O)cc1)C(=O)N[C@H](C(=O)N[C@@H](CCCN=C(N)N)C(=O)N[C@@H](Cc1ccc(O)cc1)C(=O)N[C@@H](CC(C)C)C(=O)O)C(C)C [WIQAKTKVIAYVRYL]

MIC [6]: ≥ 312 µM | MIC [7]: ≥ 156 µM
SMILES: CC[C@H](C)[C@H](NC(=O)[C@@H](N)Cc1c[nH]c2ccccc12)C(=O)N[C@@H](CCC(N)=O)C(=O)N1CCC[C@H]1C(=O)N[C@@H](CCCCN)C(=O)N[C@H](C(=O)N[C@@H](CCCCN)C(=O)N[C@H](C(=O)N[C@H](C(=O)N1CCC[C@H]1C(=O)N[C@@H](C)C(=O)N[C@H](C(=O)N[C@@H](CCCN=C(N)N)C(=O)N[C@@H](C)C(=O)N[C@@H](CC(C)C)C(=O)O)C(C)C)[C@@H](C)CC)C(C)C)[C@@H](C)O [WIQPKTKVIPAVRAL]
